Measurements published in patent publication US12522593B2, “Azacycloalkyl carbonyl cyclic amine compound” (Alivexis, Inc., priority 2022, dated 2026).

What was measured:
human recombinant CTSC = human recombinant CTSC (Homo sapiens (Human), UniProt P53634); assay: CTSC inhibition assay (in vitro), fluorescent substrate GF-AFC; format: biochemical; details: 30 μmol/L GF-AFC, pH 5.0, 25° C.
Summary of the method: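 Recombinant human CTSC pre-activated with cathepsin L (18° C, 30 min), then preincubated with compound 30 min at 25° C in pH 5.0 MES buffer with 5 mmol/L DTT (0.66 ng/mL CTSC, 0.15% DMSO). Cleavage of 30 μmol/L GF-AFC read after 1 h at 25° C (ex 390/em 505 nm); IC50 by 4-parameter fit.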

CTSC in U937 cells = CTSC in U937 cells (Homo sapiens (Human), UniProt P53634); assay: Intracellular CTSC inhibition assay (in vitro), LLOMe-induced cell death in U937 cells; format: cell-based; details: 3 hours culture, CellTiter-Glo
CTSC in U937 cells, sequence (P53634 25-463): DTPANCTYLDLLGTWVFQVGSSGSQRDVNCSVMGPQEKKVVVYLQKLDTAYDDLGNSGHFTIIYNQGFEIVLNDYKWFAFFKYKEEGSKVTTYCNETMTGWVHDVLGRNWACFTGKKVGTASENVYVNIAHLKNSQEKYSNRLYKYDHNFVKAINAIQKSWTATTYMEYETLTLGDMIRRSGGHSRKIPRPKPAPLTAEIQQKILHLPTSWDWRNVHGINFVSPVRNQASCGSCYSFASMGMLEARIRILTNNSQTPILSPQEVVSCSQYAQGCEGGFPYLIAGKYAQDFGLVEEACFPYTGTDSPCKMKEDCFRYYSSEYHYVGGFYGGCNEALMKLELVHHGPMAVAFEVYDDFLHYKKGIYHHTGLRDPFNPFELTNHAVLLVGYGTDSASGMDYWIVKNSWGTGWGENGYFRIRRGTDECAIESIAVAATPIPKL
Summary of the method: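 U937 cells in RPMI-1640 with 10% FBS were preincubated 30 min with compound ([…], 3-fold dilutions). A 300 μmol/L LLOMe solution was then added, which drives CTSC-dependent cell death, and cells were cultured 3 h. Viability read by CellTiter-Glo luminescence; IC50 from 4-parameter fit.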

human recombinant CTSC, sequence (P53634 25-134): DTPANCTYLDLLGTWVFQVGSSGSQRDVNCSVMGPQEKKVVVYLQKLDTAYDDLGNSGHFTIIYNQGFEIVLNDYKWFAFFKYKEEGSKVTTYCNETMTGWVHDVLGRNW
human recombinant CTSC, sequence (P53634 231-394): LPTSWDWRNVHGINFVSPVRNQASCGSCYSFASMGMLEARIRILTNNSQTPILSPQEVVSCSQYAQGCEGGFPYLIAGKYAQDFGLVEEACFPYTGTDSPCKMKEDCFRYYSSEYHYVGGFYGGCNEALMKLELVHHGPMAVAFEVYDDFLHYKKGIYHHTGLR
human recombinant CTSC, sequence (P53634 395-463): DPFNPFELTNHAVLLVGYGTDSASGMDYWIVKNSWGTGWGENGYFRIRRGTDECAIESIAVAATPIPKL

Compound	IC50 (human recombinant CTSC)	IC50 (CTSC in U937 cells)
O=C([C@@H]1C[C@@H](O)C2(CCC2)CN1)N1CCC(c2cn(-c3ccc(F)cc3)nn2)CC1 [Example 98]	4.15 nM	3.8 nM
O=C([C@@H]1C[C@@H](O)C2(CCC2)CN1)N1CCC(c2nccc(-n3cc(F)cn3)n2)CC1 [Example 99]	4.15 nM	1.12 nM
COc1cccc(-n2nnc(C3CCN(C(=O)[C@@H]4C[C@@H](O)C5(CCC5)CN4)CC3)n2)c1 [Example 100]	5.4 nM	3.48 nM
O=C([C@@H]1C[C@@H](O)C2(CCC2)CN1)N1CCC(c2nnn(Cc3ccccc3)n2)CC1 [Example 102]	9.48 nM	9.46 nM
CC1(C)CN[C@H](C(=O)N2CCC(c3nnn(-c4ccc(F)c(F)c4)n3)CC2)C[C@H]1O [Example 103]	2.41 nM	0.5 nM
O=C([C@@H]1C[C@@H](O)C2(CCC2)CN1)N1CCC(n2nnc(-c3ccc(F)cn3)n2)CC1 [Example 105]	2.53 nM	3.97 nM

Molecules with a lower IC50 (human recombinant CTSC), results first:

IC50 (human recombinant CTSC)	Compound	IC50 (CTSC in U937 cells)
1.89 nM	O=C([C@@H]1C[C@@H](O)C2(CCC2)CN1)N1CCC(c2nnn(-c3ccc(F)c(F)c3)n2)CC1 [Example 96]	0.37 nM
1.79 nM	O=C([C@@H]1C[C@@H](O)C2(CCC2)CN1)N1CCC(c2nnn(C3CCC(F)(F)CC3)n2)CC1 [Example 97]	3.26 nM
1.93 nM	O=C([C@@H]1C[C@@H](O)C2(CCC2)CN1)N1CCC(c2nccc(-c3ccc(F)cc3)n2)CC1 [Example 101]	0.96 nM
1.46 nM	O=C([C@@H]1C[C@@H](O)C2(CCC2)CN1)N1CCC(n2nnc(-c3ccc(F)cc3F)n2)CC1 [Example 104]	0.61 nM
